Experimental findings from ChEMBL document CHEMBL1132519, “Synthesis and sar of 2- and 3-substituted 7-azaindoles as potential dopamine D4 ligands” (Bioorg Med Chem Lett, 1999) are described below.

One test deals with T1, D(4) dopamine receptor (Homo sapiens, UniProt P21917).
T1 sequence (P21917 whole entry): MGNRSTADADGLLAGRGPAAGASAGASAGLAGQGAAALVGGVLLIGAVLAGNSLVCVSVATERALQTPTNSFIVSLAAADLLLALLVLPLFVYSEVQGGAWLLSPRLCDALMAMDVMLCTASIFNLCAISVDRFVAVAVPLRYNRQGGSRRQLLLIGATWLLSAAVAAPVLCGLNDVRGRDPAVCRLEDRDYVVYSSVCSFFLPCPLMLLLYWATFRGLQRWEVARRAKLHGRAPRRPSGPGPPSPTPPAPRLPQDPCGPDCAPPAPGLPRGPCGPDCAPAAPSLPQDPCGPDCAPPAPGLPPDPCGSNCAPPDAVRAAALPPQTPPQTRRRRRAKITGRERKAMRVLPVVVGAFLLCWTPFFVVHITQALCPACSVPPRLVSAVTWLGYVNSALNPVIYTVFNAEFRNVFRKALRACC

Another test addresses D(3) dopamine receptor (Homo sapiens, UniProt P35462).
In another test the target is D(2) dopamine receptor (Homo sapiens, UniProt P14416).
Chain of D(2) dopamine receptor (P14416 whole entry): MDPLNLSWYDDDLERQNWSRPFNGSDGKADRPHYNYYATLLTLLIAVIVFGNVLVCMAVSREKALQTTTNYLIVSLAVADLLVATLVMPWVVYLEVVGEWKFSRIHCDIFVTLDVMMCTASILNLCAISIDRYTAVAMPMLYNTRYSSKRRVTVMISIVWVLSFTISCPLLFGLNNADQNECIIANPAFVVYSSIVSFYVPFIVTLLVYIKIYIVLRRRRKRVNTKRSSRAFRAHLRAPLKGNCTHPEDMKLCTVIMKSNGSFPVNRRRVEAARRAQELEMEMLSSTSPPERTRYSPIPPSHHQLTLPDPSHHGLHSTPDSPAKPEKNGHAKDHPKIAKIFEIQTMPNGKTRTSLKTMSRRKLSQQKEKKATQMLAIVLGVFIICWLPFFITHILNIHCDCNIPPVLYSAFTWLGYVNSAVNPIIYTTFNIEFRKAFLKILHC

Molecules are shown by their SMILES. Bounds are passed on as bounds.

Chain of D(3) dopamine receptor (P35462 whole entry): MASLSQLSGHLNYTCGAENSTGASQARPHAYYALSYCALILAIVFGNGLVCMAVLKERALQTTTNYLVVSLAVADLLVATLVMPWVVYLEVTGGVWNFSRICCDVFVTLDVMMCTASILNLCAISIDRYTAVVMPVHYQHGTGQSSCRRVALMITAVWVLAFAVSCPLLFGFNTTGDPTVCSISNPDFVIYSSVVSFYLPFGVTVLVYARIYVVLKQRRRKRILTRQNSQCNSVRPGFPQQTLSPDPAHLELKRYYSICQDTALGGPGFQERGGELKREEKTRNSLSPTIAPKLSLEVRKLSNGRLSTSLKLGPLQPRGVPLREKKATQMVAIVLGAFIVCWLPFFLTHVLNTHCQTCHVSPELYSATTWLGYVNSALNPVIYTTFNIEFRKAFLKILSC
Description for D(2) dopamine receptor: Ability to displace [3H]spiperone from cloned human dopamine D2 receptor stably expressed in CHO cells
Description for D(3) dopamine receptor: Ability to displace [3H]-spiperone from cloned human dopamine D3 receptor stably expressed in CHO cells
Description for D(4) dopamine receptor: Ability to displace [3H]spiperone from cloned human dopamine D4 receptor stably expressed in HEK293 cells

Turning to `c1ccc2c(c1)CCN(Cc1c[nH]c3ncccc13)C2`, the Ki (as a rule, a dissociation constant, usually derived from enzyme kinetics or from competition with a known ligand) at D(4) dopamine receptor amounted to 7 nM; on D(3) dopamine receptor, 170 nM; on D(2) dopamine receptor it was 640 nM.

With `C1=C(/C=C/c2ccccc2)CCN(CCc2cc3ccc[nH]c-3n2)C1`, the Ki at D(4) dopamine receptor was 30 nM; at D(3) dopamine receptor it was 25 nM; on D(2) dopamine receptor it was 1300 nM.

Take `c1ccc(CCC2CCN(Cc3c[nH]c4ncccc34)CC2)cc1`: the inhibitory constant (Ki) at D(4) dopamine receptor stood at 1.8 nM; at D(3) dopamine receptor, 1300 nM; on D(2) dopamine receptor, 1100 nM.

In the case of `c1ccc(CCC2CCN(Cc3cc4ccc[nH]c-4n3)CC2)cc1`, the inhibition constant Ki at D(4) dopamine receptor came to 2 nM; on D(3) dopamine receptor, 250 nM; at D(2) dopamine receptor, 200 nM.

With `c1c[nH]c2nc(CN3CCc4ccccc4C3)cc-2c1`, the figures for the inhibitory constant (Ki) at D(4) dopamine receptor, on D(3) dopamine receptor and on D(2) dopamine receptor were 59 nM, 1100 nM and 600 nM, respectively.

As to `C1=C(c2ccccc2)CCN(CCc2c[nH]c3ncccc23)C1`, the Ki at D(4) dopamine receptor was 34 nM; at D(3) dopamine receptor it was 10 nM; on D(2) dopamine receptor, 21 nM.

Regarding `C1=C(/C=C/c2ccccc2)CCN(CCc2c[nH]c3ncccc23)C1`, the figures for the Ki on D(4) dopamine receptor, on D(3) dopamine receptor and at D(2) dopamine receptor were 6.5 nM, 180 nM and 280 nM, respectively.

As to `COc1ccc(N2CCN(Cc3c[nH]c4ncccc34)CC2)cc1`, the inhibitory constant (Ki) is 3900 nM on D(3) dopamine receptor and greater than 1500 nM at D(2) dopamine receptor.

For the compound `Clc1ccc(N2CCN(CCc3cc4cccnc4[nH]3)CC2)cc1`, the results for the Ki on D(4) dopamine receptor, at D(3) dopamine receptor and at D(2) dopamine receptor were 11.7 nM, 50 nM and 800 nM, respectively.

Take `COc1ccc(N2CCN(CCc3c[nH]c4ncccc34)CC2)cc1`: the results for the Ki at D(4) dopamine receptor, at D(3) dopamine receptor and at D(2) dopamine receptor were 26 nM, 530 nM and 900 nM, respectively.
